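All cell lines were grown in 96-well plates and treated with compound for 48 hours. GI50 is the concentration that inhibits growth by half. The concentration for full growth arrest is given as TGI.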
What was measured:
Assay in all cases: NCI-60 cell line screen, 48 h
CCRF-CEM leukemia = tested on: CCRF-CEM leukemia
HCT-15 colon = tested on: HCT-15 colon
HOP-62 NSCLC = tested on: HOP-62 NSCLC
HOP-92 NSCLC = tested on: HOP-92 NSCLC
NCI-H460 lung = tested on: NCI-H460 lung
SK-MEL-2 melanoma = tested on: SK-MEL-2 melanoma
SK-MEL-5 melanoma = tested on: SK-MEL-5 melanoma
BT-549 breast = tested on: BT-549 breast
DU-145 prostate = tested on: DU-145 prostate
T-47D breast = tested on: T-47D breast

Structure (SMILES)	TGI (CCRF-CEM leukemia)	TGI (HCT-15 colon)	TGI (HOP-62 NSCLC)	TGI (HOP-92 NSCLC)	TGI (NCI-H460 lung)	TGI (SK-MEL-2 melanoma)	TGI (SK-MEL-5 melanoma)	TGI (BT-549 breast)	TGI (DU-145 prostate)	TGI (T-47D breast)	GI50 (CCRF-CEM leukemia)
O=C1c2ccccc2C(=O)c2c(O)c(NCCNCCO)cc(O)c21	13.2 µM	14.1 µM	11.5 µM	24.6 µM	12.3 µM	15.8 µM	13.1 µM				
Cc1nc(Nc2nc3ccccc3[nH]2)[nH]c(=O)c1CCO	> 100 µM	> 100 µM	> 100 µM	> 100 µM	> 100 µM	> 100 µM	> 100 µM	> 100 µM	> 100 µM	> 100 µM	
S=C(Nc1cccc(C2(N3CCCCC3)CCCCC2)c1)Nc1cccc(C2(N3CCCCC3)CCCCC2)c1	34 µM	> 100 µM	> 100 µM	43.9 µM	36.7 µM	33.3 µM	33.6 µM	> 100 µM	80.8 µM	36.6 µM	
Cn1nc(C(=O)N2CC(CCl)c3c2cc([N+](=O)[O-])c2ccccc32)cc1NC(=O)Nc1cc(C(=O)N2CC(CCl)c3c2cc([N+](=O)[O-])c2ccccc32)nn1C (stereo not drawn)		> 100 µM	> 100 µM	> 100 µM	> 100 µM	> 100 µM	> 100 µM	> 100 µM	> 100 µM	> 100 µM	
CC1=C(C(=O)NC(C)(C)C)CC(C(=O)NC(C)(C)C)C(C)N1 (stereo not drawn)	> 100 µM	> 100 µM	> 100 µM	> 100 µM	> 100 µM	> 100 µM	> 100 µM	> 100 µM	> 100 µM	> 100 µM	
Cc1cc(C(O)CNC(C)CCn2cnc3c2c(=O)n(C)c(=O)n3C)ccc1O (stereo not drawn)	> 100 µM	> 100 µM	> 100 µM	> 100 µM	> 100 µM	> 100 µM	> 100 µM	> 100 µM	> 100 µM	> 100 µM	
Cc1[nH]c2ccccc2c1C1=CC(=O)N(c2ccccc2)C1=O	73.4 µM	34.5 µM	25.5 µM	50.9 µM	39.4 µM	31.5 µM	21.9 µM	> 100 µM	52.5 µM		
Nc1cc(N)c(N=Nc2cccc3c(S(=O)(=O)O)cccc23)cc1N=Nc1cc([N+](=O)[O-])ccc1O		61 µM	> 100 µM	98.7 µM	74.1 µM	> 100 µM	47.2 µM	> 100 µM	> 100 µM	> 100 µM	
CCCc1cc(-c2ccc(-c3cc(CCC)c(C=O)[nH]3)s2)[nH]c1C=O	> 100 µM	> 100 µM	> 100 µM	> 100 µM	> 100 µM	> 59.7 µM	> 100 µM	> 100 µM	> 100 µM	> 100 µM	
CN(C)Cc1[nH]c2ccccc2c1C(=O)c1ccccc1	> 100 µM	> 100 µM	> 100 µM	> 100 µM	> 100 µM	> 100 µM	> 100 µM				
COc1ccccc1Cn1[nH]c(=O)c2cc([N+](=O)[O-])ccc21	> 100 µM	> 100 µM	> 100 µM	93.4 µM	> 100 µM	> 100 µM	> 100 µM		> 100 µM		
O=C1/C(=C/c2ccc(Cl)cc2)Sc2scc(-c3cccc([N+](=O)[O-])c3)[n+]21	1.18 µM	4.66 µM	> 69.7 µM	5.39 µM	20.3 µM	29.1 µM	12.9 µM	6.37 µM	> 33.3 µM	> 100 µM	
COc1cc2c(cc1OCCCCN1CCN(CCCCOc3cc4c(cc3OC)C(=O)N3CCC[C@H]3C=N4)CC1)N=C[C@@H]1CCCN1C2=O	41.6 µM		> 42 µM	0.255 µM	> 32 µM	0.175 µM	0.0476 µM	0.843 µM	> 100 µM	3.53 µM	< 0.01 µM
CSc1nc(C)c(CCCl)c(Cl)n1	> 100 µM	> 100 µM	> 100 µM		> 100 µM		> 100 µM	> 100 µM	> 100 µM	> 100 µM	
COc1ccc(C2C(Cl)C(=O)N2NC(=O)c2ccccc2O)cc1OC (stereo not drawn)	> 100 µM	> 100 µM			> 100 µM	> 100 µM	> 100 µM				
CC(=O)C1=NN(c2ccccc2)C2(S1)SC(c1ccccc1)(c1ccccc1)c1ccccc12 (stereo not drawn)	> 100 µM	> 100 µM	> 100 µM	46.1 µM	> 100 µM	78.7 µM					
O=C(O)CN=c1c2ccccc2n(O)c2ccccc12	53.6 µM	> 100 µM	> 100 µM		> 100 µM	> 100 µM	> 100 µM				
CC(=O)C1C(=O)C(=O)N(c2ccc(Br)cc2)C1=O (stereo not drawn)	> 100 µM	> 100 µM	> 100 µM	> 100 µM	> 100 µM	> 100 µM	> 100 µM	> 100 µM	> 100 µM		
O=C(Nc1ccc(S(=O)(=O)Nc2ncccn2)cc1)c1c2ccccc2nc2ccccc12		> 100 µM	> 100 µM	> 100 µM	> 100 µM	> 100 µM	> 100 µM	> 100 µM	> 100 µM		
C#CC(O)Cc1ccc(OC)c2occc12 (stereo not drawn)		> 100 µM	> 100 µM	> 100 µM	> 100 µM	> 100 µM	> 100 µM	> 100 µM	> 100 µM	> 100 µM	
CC(=O)O/N=C/c1cc2c(cc1Br)OCO2	> 349 µM	> 349 µM	> 349 µM	> 349 µM	> 349 µM	> 349 µM	> 349 µM				
CCN1C(=O)CS/C1=N\NC(=O)CSc1nc2ccccc2c(=O)n1CC	> 100 µM	> 100 µM	> 100 µM		> 100 µM	> 100 µM	> 100 µM	> 100 µM	> 100 µM	> 100 µM	
Cc1ccc(F)c2c(=O)cc(-c3ccccc3)[nH]c12	> 100 µM	> 100 µM	> 100 µM	> 100 µM	> 100 µM	> 100 µM	> 100 µM				

Source: PubChem BioAssay (NCI)
